Key:
normal volunteers = details: acute; cited from earlier work
[1] = tested on: Hypothalamus-Pituitary gland-Adrenal gland (HPA) axis; details: cited from earlier work
db/db mice = details: cited from earlier work
Cushing's patients = details: chronic; cited from earlier work
ob/ob mice = details: cited from earlier work
[2] = target: T1, full length human recombinant glucocorticoid receptor (Homo sapiens, UniProt P04150); test: Glucocorticoid Receptor Binding Assay (fluorescence polarization competitor assay, Fluormone GS Far Red tracer)
T1 construct: partially purified full length human recombinant glucocorticoid receptor; purchased Panvera/Invitrogen PV4302
T1 sequence (P04150 1-777): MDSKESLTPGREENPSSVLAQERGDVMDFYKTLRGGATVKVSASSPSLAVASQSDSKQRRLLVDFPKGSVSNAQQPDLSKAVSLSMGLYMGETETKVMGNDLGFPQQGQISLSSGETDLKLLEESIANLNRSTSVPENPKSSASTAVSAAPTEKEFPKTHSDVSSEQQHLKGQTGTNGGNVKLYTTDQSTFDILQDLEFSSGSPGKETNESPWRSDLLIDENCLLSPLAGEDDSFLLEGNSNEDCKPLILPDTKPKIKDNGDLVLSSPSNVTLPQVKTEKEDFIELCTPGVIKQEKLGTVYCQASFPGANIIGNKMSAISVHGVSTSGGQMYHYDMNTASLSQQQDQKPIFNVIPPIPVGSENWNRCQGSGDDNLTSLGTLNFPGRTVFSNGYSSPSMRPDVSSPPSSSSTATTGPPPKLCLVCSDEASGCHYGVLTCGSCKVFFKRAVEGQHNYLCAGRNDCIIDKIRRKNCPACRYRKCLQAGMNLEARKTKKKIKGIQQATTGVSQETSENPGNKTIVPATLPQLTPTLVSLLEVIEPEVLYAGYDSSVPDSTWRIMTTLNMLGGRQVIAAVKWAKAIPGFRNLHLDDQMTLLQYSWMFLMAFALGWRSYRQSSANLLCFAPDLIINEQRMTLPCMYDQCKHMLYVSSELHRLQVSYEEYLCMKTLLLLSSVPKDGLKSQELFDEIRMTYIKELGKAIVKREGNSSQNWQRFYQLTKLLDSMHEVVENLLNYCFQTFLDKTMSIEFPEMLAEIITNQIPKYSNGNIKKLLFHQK
Procedure, shortened: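 Serially diluted compounds competed with the tight-binding far-red fluorescent ligand for recombinant full-length human glucocorticoid receptor plus GR-stabilizing peptide (screening buffer pH 7.4; 3 h, 22 °C, dark). Polarization (610-660 nm) gave IC50 via sigmoidal dose-response fits, and Ki was derived by Cheng-Prusoff from tracer concentration and Kd.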

| Ki [2] | SMILES | other results |
| --- | --- | --- |
|  | CC#C[C@]1(O)CC[C@H]2[C@@H]3CCC4=CC(=O)CCC4=C3[C@@H](c3ccc(N(C)C)cc3)C[C@@]21C [RU486/mifepristone, mifepristone] | fasting plasma glucose (normal volunteers): decrease of fasting plasma glucose; effect on HPA axis / endogenous corticosteroids circulating in the blood ([1]; feed-back mechanism): increase of endogenous corticosteroids circulating in the blood; adrenal insufficiency symptoms ([1]; long term treatment (up to 1 year)): induces some adrenal insufficiency symptoms; activity of gluconeogenic enzymes (db/db mice): normalizes; plasmatic HbA1c (Cushing's patients): decrease of plasmatic HbA1c; fasting plasma glucose (ob/ob mice): normalizes fasting plasma glucose |
| 144 nM | C[C@H](c1ccc(-c2nc(C(=O)O)no2)cc1Cl)[C@@](O)(c1ccnc(Cl)c1)C(F)(F)F (stereo in doubt) [Example 48, 5-{3-Chloro-4-[2-(2-chloro-pyridin-4-yl)-3,3,3-trifluoro-2-hydroxy-1-methyl-propyl]-phenyl}-[1,2,4]oxadiazole-3-carboxylic acid] |  |
| 18.8 nM | C[C@H](c1ccc(COc2cnc(C(=O)O)cn2)cc1Cl)[C@@](O)(c1ccnc(Cl)c1)C(F)(F)F (stereo in doubt) [Example 121, 5-{3-Chloro-4-[2-(2-chloro-pyridin-4-yl)-3,3,3-trifluoro-2-hydroxy-1-methyl-propyl]-benzyloxy}-pyrazine-2-carboxylic acid] |  |
| 3.6 nM | COC(=O)c1ccc(COc2ccc(C(C)C(O)(c3ccnc(C)c3)C(F)(F)F)c(Cl)c2)c(OC)c1 (stereo not drawn) [Example 95, 4-{3-Chloro-4-[3,3,3-trifluoro-2-hydroxy-1-methyl-2-(2-methyl-pyridin-4-yl)-propyl]-phenoxymethyl}-3-methoxy-benzoic acid methyl ester] |  |
| 3 nM | COC(=O)c1cnc(Oc2ccc([C@H](C)[C@](O)(c3cc(C)c(=O)n(C)c3)C(F)(F)F)c(Cl)c2)c(Cl)c1 (stereo in doubt) [Example 250, 5-Chloro-6-{3-chloro-4-[2-(1,5-dimethyl-6-oxo-1,6-dihydro-pyridin-3-yl)-3,3,3-trifluoro-2-hydroxy-1-methyl-propyl]-phenoxy}-nicotinic acid methyl ester] |  |
| 66.3 nM | Cc1cc(C(O)(C(C)c2ccc(-c3ccc(CC(=O)O)cc3)cc2Cl)C(F)(F)F)ccn1 (stereo not drawn) [Example 64, {3′-Chloro-4′-[3,3,3-trifluoro-2-hydroxy-1-methyl-2-(2-methyl-pyridin-4-yl)-propyl]-biphenyl-4-yl}-acetic acid] |  |
| 10.8 nM | COC(=O)c1ccc(Oc2ccc(C(C)C(O)(c3ccnc(Cl)c3)C(F)(F)F)c(Cl)c2)nc1 (stereo not drawn) [Example 118, 6-{3-Chloro-4-[2-(2-chloro-pyridin-4-yl)-3,3,3-trifluoro-2-hydroxy-1-methyl-propyl]-phenoxy}-nicotinic acid methyl ester] |  |
| 337 nM | C[C@H](c1ccc(C(=O)Nc2ccn(CC(=O)O)n2)cc1Cl)[C@@](O)(c1ccnc(Cl)c1)C(F)(F)F (stereo in doubt) [Example 35, (3-{3-Chloro-4-[2-(2-chloro-pyridin-4-yl)-3,3,3-trifluoro-2-hydroxy-1-methyl-propyl]-benzoylamino}-pyrazol-1-yl)-acetic acid] |  |
| 9.4 nM | CCOC(=O)c1cc(COc2ccc(C(C)C(O)(c3ccnc(C)c3)C(F)(F)F)c(Cl)c2)ccn1 (stereo not drawn) [Example 101, 4-{3-Chloro-4-[3,3,3-trifluoro-2-hydroxy-1-methyl-2-(2-methyl-pyridin-4-yl)-propyl]-phenoxymethyl}-pyridine-2-carboxylic acid ethyl ester] |  |
| 1.8 nM | Cc1cc([C@@](O)([C@@H](C)c2ccc(Oc3ncc(C(=O)O)c(C(F)(F)F)n3)cc2Cl)C(F)(F)F)cn(C)c1=O (stereo in doubt) [Example 243, 2-{3-Chloro-4-[2-(1,5-dimethyl-6-oxo-1,6-dihydro-pyridin-3-yl)-3,3,3-trifluoro-2-hydroxy-1-methyl-propyl]-phenoxy}-4-trifluoromethyl-pyrimidine-5-carboxylic acid] |  |
